The assay concerns the target T1, Slp-4 C2A domain (synaptotagmin-like protein 4/granuphilin) (Homo sapiens, UniProt Q96C24).
T1 construct: gene SYTL4; C2A domain G352-S494; N-terminal GST cleaved by thrombin; E. coli BL21(DE3); cation-exchange purified, unmodified main peak
T1 sequence (Q96C24 352-494): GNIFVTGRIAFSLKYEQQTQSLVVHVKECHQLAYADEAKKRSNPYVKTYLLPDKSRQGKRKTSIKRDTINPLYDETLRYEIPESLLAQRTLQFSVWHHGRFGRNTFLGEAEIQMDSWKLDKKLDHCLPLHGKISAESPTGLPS
The experiment in a line: Trp-to-dansyl FRET, competitive displacement of protein from dansyl-PE liposomes. It counts as binding. The following applies: read-out: IC50 for IP6 (μM) ^a.

By IC50 is commonly meant the midpoint of a concentration-inhibition curve.

As for `O=P(O)(O)O[C@H]1[C@H](OP(=O)(O)O)[C@@H](OP(=O)(O)O)[C@H](OP(=O)(O)O)[C@@H](OP(=O)(O)O)[C@H]1OP(=O)(O)O` [IP6, D-myo-inositol-(1,2,3,4,5,6)-hexakisphosphate], the IC50 was 620 ± 80 µM.

Values taken from article PMC7857503, “Multivalent lipid targeting by the calcium-independent C2A domain of synaptotagmin-like protein 4/granuphilin” (The Journal of Biological Chemistry, 2020).
